ChEMBL document CHEMBL5291721, “A preclinical secondary pharmacology resource illuminates target-adverse drug reaction associations of marketed drugs” (Nat Commun, 2023)

Experiments:
Vasopressin V2 receptor = Vasopressin V2 receptor (Homo sapiens, UniProt P30518)
[1] = biological target: T1, Alpha-2A adrenergic receptor (Homo sapiens, UniProt P08913); type: functional, cell-based
T1 sequence (P08913 whole entry): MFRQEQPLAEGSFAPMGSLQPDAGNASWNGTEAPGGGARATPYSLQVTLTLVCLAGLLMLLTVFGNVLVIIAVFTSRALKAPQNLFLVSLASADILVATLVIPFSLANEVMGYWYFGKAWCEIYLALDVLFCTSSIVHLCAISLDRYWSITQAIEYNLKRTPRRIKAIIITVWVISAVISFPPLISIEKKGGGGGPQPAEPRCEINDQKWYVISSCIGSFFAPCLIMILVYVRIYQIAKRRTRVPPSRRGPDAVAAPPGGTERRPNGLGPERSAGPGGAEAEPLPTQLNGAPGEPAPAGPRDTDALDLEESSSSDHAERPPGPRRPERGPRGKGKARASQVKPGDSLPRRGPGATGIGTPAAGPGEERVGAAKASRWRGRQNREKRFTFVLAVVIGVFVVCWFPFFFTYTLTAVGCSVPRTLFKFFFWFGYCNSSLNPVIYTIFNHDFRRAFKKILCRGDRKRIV

Adenosine receptor A2a = Adenosine receptor A2a (Homo sapiens, UniProt P29274)
[2] = biological target: Glutamate receptor ionotropic, NMDA 1 (Rattus norvegicus, UniProt P35439)
[3] = biological target: cGMP-inhibited 3',5'-cyclic phosphodiesterase 3A (Homo sapiens, UniProt Q14432); type: functional
[4] = biological target: Delta-type opioid receptor (Homo sapiens, UniProt P41143)
[5] = biological target: T2, Neuropeptide Y receptor type 1 (Homo sapiens, UniProt P25929); settings: read-out: AC50
T2 sequence (P25929 whole entry): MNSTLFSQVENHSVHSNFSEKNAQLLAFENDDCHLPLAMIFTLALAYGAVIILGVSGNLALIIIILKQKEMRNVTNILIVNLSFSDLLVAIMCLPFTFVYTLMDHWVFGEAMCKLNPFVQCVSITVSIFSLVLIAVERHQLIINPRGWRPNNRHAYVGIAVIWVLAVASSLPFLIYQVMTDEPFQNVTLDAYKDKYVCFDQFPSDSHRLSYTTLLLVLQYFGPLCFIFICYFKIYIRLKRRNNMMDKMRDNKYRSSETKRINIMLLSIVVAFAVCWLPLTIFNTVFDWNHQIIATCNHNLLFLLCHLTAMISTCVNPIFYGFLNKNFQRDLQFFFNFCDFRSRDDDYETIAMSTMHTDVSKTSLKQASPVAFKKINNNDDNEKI

[6] = biological target: Sodium-dependent dopamine transporter (Homo sapiens, UniProt Q01959)
Motilin receptor = Motilin receptor (Homo sapiens, UniProt O43193)
[7] = biological target: T3, Type-1 angiotensin II receptor (Homo sapiens, UniProt P30556)
T3 sequence (P30556 whole entry): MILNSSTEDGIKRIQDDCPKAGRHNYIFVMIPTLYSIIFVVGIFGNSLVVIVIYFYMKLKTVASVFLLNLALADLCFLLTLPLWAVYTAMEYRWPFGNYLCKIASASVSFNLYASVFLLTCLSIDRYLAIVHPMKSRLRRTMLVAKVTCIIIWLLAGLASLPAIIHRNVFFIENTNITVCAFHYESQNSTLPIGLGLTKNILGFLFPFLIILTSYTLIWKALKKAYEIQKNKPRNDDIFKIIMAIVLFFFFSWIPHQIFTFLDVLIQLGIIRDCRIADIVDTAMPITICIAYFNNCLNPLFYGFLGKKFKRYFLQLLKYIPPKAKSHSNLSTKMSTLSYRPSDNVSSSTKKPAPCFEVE

[8] = biological target: Sodium-dependent noradrenaline transporter (Homo sapiens, UniProt P23975)
[9] = biological target: T4, Alpha-2C adrenergic receptor (Homo sapiens, UniProt P18825); type: functional
T4 sequence (P18825 whole entry): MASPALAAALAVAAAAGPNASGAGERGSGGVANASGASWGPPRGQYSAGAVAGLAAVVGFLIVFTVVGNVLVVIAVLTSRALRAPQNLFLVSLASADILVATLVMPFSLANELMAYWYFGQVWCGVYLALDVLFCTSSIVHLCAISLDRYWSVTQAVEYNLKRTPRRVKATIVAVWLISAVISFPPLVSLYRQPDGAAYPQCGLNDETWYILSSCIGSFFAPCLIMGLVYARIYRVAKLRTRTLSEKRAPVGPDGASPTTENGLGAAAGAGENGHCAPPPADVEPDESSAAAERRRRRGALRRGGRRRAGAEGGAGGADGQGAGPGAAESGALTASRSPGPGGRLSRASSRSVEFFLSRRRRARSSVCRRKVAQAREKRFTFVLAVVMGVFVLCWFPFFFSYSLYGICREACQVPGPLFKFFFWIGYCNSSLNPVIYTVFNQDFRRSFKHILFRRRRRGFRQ

[10] = biological target: T5, Amine oxidase [flavin-containing] A (Homo sapiens, UniProt P21397); type: functional
T5 sequence (P21397 whole entry): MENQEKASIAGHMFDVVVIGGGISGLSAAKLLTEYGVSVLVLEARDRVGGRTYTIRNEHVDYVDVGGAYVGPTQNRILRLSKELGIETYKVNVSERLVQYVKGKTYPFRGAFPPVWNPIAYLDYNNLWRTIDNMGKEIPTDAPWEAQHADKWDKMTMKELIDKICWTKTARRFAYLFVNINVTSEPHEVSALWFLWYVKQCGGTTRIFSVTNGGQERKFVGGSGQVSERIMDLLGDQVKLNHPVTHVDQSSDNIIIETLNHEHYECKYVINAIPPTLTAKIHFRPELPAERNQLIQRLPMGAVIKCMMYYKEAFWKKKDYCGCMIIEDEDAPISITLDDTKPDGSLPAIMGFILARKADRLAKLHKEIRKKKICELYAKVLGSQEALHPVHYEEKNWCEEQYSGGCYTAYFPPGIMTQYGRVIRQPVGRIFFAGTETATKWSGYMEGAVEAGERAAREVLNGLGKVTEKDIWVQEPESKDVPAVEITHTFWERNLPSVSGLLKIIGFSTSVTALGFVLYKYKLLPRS
Further: assay procedure not described here.

Delta-type opioid receptor, sequence (P41143 whole entry): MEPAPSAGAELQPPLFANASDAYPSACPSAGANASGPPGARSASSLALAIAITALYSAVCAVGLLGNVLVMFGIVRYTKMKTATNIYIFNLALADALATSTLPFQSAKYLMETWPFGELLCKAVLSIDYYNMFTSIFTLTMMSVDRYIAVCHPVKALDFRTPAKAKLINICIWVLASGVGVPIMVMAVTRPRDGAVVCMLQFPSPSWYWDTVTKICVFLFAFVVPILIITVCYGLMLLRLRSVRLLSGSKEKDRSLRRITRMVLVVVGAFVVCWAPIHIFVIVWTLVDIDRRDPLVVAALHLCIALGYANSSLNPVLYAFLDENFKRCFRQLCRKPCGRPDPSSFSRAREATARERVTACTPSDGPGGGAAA
cGMP-inhibited 3',5'-cyclic phosphodiesterase 3A, sequence (Q14432 whole entry): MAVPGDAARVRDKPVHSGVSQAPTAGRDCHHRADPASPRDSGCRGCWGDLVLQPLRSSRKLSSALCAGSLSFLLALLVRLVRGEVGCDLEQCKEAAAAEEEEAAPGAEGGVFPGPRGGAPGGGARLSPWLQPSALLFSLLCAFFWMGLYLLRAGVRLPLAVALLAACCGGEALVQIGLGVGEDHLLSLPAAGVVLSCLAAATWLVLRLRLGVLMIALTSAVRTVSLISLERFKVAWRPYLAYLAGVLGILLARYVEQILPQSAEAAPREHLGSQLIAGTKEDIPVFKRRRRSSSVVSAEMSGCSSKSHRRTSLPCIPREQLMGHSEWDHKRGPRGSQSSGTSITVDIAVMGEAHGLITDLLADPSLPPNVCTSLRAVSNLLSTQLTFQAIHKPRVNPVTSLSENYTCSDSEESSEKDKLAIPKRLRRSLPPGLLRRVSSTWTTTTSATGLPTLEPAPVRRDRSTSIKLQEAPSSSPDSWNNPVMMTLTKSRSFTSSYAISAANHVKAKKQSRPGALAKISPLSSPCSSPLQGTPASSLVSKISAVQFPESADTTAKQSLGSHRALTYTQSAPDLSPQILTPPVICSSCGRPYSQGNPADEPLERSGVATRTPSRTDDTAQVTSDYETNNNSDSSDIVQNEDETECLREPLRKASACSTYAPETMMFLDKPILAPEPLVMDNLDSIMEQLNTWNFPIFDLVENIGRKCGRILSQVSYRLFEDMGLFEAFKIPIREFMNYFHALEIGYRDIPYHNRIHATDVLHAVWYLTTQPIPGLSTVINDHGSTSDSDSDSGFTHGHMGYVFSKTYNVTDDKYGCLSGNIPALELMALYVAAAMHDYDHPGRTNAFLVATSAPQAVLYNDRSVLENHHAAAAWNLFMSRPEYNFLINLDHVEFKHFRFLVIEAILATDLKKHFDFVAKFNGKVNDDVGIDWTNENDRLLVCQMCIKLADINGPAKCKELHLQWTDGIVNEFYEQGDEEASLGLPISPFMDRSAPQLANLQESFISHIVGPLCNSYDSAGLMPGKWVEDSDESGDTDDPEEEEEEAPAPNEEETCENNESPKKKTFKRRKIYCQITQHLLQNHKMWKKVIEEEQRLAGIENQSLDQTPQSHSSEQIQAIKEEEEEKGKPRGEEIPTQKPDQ
Sodium-dependent noradrenaline transporter, sequence (P23975 whole entry): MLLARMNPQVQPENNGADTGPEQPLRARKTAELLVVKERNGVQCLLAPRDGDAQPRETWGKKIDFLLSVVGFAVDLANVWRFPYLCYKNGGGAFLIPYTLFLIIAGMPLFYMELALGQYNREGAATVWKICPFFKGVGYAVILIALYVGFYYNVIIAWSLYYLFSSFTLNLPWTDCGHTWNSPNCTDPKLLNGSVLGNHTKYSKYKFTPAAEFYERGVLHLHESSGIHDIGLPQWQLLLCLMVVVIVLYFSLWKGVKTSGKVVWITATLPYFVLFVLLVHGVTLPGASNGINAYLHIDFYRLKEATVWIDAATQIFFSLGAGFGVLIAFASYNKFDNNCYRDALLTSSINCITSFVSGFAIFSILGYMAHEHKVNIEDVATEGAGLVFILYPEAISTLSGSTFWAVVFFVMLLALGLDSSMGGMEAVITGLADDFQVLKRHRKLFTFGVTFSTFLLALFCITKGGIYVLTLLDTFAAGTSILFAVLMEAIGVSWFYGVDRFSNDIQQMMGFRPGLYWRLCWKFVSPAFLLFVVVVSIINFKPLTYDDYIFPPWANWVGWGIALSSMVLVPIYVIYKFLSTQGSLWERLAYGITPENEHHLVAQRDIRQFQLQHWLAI
Vasopressin V2 receptor, sequence (P30518 whole entry): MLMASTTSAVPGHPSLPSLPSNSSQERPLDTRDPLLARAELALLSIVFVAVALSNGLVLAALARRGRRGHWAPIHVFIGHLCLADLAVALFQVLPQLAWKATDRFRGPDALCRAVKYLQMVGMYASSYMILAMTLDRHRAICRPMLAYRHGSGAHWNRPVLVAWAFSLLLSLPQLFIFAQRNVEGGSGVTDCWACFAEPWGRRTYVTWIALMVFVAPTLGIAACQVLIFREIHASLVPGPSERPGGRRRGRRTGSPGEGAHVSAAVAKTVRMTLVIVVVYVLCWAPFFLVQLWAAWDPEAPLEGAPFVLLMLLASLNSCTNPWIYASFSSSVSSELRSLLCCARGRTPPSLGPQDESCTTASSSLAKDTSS
Adenosine receptor A2a, sequence (P29274 whole entry): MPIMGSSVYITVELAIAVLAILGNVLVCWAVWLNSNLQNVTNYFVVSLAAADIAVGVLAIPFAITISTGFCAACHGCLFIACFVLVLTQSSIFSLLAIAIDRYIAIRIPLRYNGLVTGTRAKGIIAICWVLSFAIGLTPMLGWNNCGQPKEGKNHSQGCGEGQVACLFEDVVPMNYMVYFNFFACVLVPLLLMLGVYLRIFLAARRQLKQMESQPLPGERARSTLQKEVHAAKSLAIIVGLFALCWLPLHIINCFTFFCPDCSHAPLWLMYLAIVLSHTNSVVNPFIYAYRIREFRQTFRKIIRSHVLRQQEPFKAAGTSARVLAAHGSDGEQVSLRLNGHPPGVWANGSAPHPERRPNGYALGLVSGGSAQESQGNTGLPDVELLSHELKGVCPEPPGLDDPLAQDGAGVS
Sodium-dependent dopamine transporter, sequence (Q01959 whole entry): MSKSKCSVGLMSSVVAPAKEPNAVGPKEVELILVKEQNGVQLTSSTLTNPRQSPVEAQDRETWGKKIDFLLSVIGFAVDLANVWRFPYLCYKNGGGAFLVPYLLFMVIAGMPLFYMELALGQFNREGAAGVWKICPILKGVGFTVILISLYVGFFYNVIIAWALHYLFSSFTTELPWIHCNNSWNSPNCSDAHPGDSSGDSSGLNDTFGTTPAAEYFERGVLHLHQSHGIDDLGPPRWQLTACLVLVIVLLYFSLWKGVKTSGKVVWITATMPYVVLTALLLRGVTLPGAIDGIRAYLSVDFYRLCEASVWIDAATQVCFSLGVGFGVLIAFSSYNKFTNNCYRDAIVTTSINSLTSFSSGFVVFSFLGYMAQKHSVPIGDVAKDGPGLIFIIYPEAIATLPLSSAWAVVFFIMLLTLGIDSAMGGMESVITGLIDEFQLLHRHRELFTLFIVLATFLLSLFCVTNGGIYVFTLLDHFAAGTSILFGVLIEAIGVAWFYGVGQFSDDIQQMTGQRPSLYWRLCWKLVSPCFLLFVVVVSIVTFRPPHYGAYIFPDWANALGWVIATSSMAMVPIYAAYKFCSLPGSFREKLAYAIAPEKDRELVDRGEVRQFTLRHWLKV
Motilin receptor, sequence (O43193 whole entry): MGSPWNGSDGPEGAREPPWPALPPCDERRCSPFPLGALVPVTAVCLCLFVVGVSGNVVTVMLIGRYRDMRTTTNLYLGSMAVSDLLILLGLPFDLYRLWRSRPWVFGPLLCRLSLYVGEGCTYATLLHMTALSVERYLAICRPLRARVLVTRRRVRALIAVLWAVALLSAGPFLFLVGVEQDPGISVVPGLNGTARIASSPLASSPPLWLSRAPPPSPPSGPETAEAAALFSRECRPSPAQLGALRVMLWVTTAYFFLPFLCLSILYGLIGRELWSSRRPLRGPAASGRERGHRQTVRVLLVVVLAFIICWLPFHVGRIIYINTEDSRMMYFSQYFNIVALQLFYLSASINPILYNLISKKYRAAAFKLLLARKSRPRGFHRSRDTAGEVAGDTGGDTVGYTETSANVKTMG

SMILES	AC50 (Vasopressin V2 receptor) [µM]	AC50 [1] [µM]	AC50 (Adenosine receptor A2a) [µM]	AC50 [2] [µM]	AC50 [3] [µM]	AC50 [4] [µM]	AC50 [5] [µM]	AC50 [6] [µM]	AC50 (Motilin receptor) [µM]	AC50 [7] [µM]	AC50 [8] [µM]	AC50 [9] [µM]	AC50 [10] [µM]
CCC(=O)O[C@H]1CC[C@H]2[C@@H]3CCC4=CC(=O)CC[C@]4(C)[C@H]3CC[C@]12C [TESTOSTERONE PROPIONATE]	> 10	> 10	> 10	> 10	> 10	> 30	> 10	> 10	> 10	> 10	> 10	> 10	> 10
Clc1ccc(C(Cn2ccnc2)OCc2ccsc2Cl)c(Cl)c1 (centres undefined) [TIOCONAZOLE]	> 30	> 30	> 30	> 30	17	3.2	> 30	10.6	> 30	> 30	20.7	6.5	> 30
Cc1cc2cc3c(C)cc(=O)oc3c(C)c2o1 [TRIOXSALEN]	> 10	> 10	6.7	> 10	> 30	> 30	> 10	> 10	> 10	> 10	> 10	> 10	0.72
CC(C)[C@H](N)C(=O)OCC(CO)OCn1cnc2c(=O)nc(N)[nH]c21 (some centres undefined) [VALGANCICLOVIR]	> 30	> 30	> 30	> 30	7	> 30	> 30	> 30	> 30	> 30	> 30	> 30	> 30
CCC(C)C(CC)C(N)=O (centres undefined) [VALNOCTAMIDE]	> 30	> 30	> 30	> 30	> 30	> 30	> 30	> 30	> 30	> 30	> 30	> 30	> 30
CCCC(CCC)C(N)=O [VALPROMIDE]	> 30	> 10	> 30	> 10	> 30	> 30	> 30	> 30	> 10	> 30	> 30	> 10	> 10
CCOC(=O)C1=C[C@]2(CC)CCCN3CCc4c(n1c1ccccc41)[C@@H]32 [VINPOCETINE]	> 30	> 30	> 30	> 30	> 30	> 30	> 30	21	> 30	> 30	> 30	1.1	> 30
Cc1cc(C(C)(C)C)cc(C)c1CC1=NCCN1 [XYLOMETAZOLINE]	> 30	> 30	> 30	> 30	> 30	> 30	> 30	> 30	> 30	> 30	> 30	0.239	> 30
